Article PMC6934184, “Selective DNA-PKcs inhibition extends the therapeutic index of localized radiotherapy and chemotherapy” (The Journal of Clinical Investigation, 2019)

Target: T1, SPHK2 (Homo sapiens, UniProt Q9NRA0)
T1 construct: purchased Thermo Fisher Scientific (Life Technologies) SelectScreen
Assay: SelectScreen Adapta
Type: biochemical
Conditions: ATP 10 µM
Description: The in vitro kinase selectivity of NU5455 was determined using the SelectScreen Broad Assay Panel (Thermo Fisher Scientific) involving activity and binding assays (Supplemental Table 1). […] Class IA PI3Ks were measured using the p85α subunit.
Kinase [ATP] % Assay Kinase [ATP] % Assay Kinase [ATP] % Assay Kinase [ATP] % Assay […]
MAPK14 (p38 alpha) Km app 9.7 Z SPHK2 10 3.1 A ICK n/a 0.0 L SGKL (SGK3) Km app -4.6 Z […]
SGK (SGK1) Km app 8.5 Z MAP4K2 (GCK) Km app 2.7 Z TLK2 n/a -0.3 L STK38 (NDR) n/a -5.9 L
MERTK (cMER) Km app 8.3 Z CDK2/cyclin A Km app 2.7 Z TGFBR1 (ALK5) n/a -0.4 L MATK (HYL) Km app -6.3 Z
FYN Km app 8.3 Z EPHA1 Km app 2.7 Z CLK3 Km app -0.5 Z ABL1 E255K Km app -6.6 Z
TEC n/a 8.1 L CDK2/cyclin E1 n/a 2.7 L MAP3K14 (NIK) n/a -0.5 L STK17A (DRAK1) n/a -6.6 L
KIT V654A n/a 8.1 L TESK2 n/a 2.7 L AKT3 (PKB gamma) Km app -0.5 Z JAK2 JH1 JH2 Km app -6.7 Z
ROS1 Km app 8.0 Z SPHK1 Km app 2.7 A MAP3K9 (MLK1) Km app -0.5 Z PRKACB (PRKAC beta) n/a -6.8 L
FGFR3 K650E Km app 7.9 Z AMPK A2/B1/G1 Km app 2.6 Z IKBKB (IKK beta) Km app -0.6 Z PDGFRA (PDGFR alpha) Km app -6.8 Z
RAF1 (cRAF) Y340D Y341D 100 7.9 Z DYRK3 Km app 2.6 Z CAMK2A (CaMKII alpha) Km app -0.6 Z NEK9 Km app -7.2 Z
PI4KA (PI4K alpha) 10 7.8 A CSNK1D (CK1 delta) Km app 2.6 Z PRKCB1 (PKC beta I) Km app -0.7 Z PDK1 Km app -7.3 Z
HIPK2 Km app 7.8 Z ACVR2A n/a 2.5 L TTK n/a -0.7 L RPS6KB1 (p70S6K) Km app -7.8 Z […]

T1 sequence (Q9NRA0 whole entry): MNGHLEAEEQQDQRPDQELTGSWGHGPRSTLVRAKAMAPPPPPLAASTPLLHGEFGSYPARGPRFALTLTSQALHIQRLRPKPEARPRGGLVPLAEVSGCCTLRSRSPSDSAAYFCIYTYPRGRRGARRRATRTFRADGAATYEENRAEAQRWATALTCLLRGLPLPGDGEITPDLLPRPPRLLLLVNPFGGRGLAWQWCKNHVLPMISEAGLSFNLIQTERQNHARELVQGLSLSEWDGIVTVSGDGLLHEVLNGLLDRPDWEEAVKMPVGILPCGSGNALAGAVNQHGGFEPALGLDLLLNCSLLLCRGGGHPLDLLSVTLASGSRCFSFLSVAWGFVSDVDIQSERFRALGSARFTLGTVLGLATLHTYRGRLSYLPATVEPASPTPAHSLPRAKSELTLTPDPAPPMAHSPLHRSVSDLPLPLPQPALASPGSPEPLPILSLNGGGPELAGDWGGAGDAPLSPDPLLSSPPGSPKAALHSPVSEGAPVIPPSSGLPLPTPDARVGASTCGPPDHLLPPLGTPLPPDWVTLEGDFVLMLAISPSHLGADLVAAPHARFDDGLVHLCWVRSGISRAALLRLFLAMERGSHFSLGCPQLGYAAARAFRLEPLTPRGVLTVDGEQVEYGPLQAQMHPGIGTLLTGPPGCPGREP

CN(C(=O)CN1CCOCC1)c1ccc2sc3c(-c4cccc5c(=O)cc(N6CC7CCC(C6)O7)oc45)cccc3c2c1 [NU5455]
inhibition at 1 µM: 3.1%
